Data from US20250011332A1, “PYRAZOLO FUSED RING COMPOUND AND USE THEREOF” (SOTER BIOPHARMA PTE. LTD., priority 2021, published 2025).
Each block holds one molecule with its values, some of them ahead of it.

Key:
JAK2(h) = JAK2(h) (Homo sapiens (Human), UniProt O60674); assay: JAK2 kinase activity test in vitro ([γ-33P]-ATP, Eurofins); type: biochemical
Description: (§1) Recombinant human JAK1, JAK2, JAK3 and Tyk2 […], main instruments and reagents are all provided by the British company Eurofins
(§2) JAK2, JAK3 and TYK2 dilution: 20 mM 3-(N-morpholine)propanesulfonic acid (MOPS), 1 mM EDTA, 0.01% Brij-35.5% glycerol, 0.1% β-mercaptoethanol, 1 mg/mL BSA; JAK1 dilution: 20 mM TRIS, 0.2 mM EDTA, 0.1% β-mercaptoethanol, 0.01% Brij-35.5% glycerol. All compounds were prepared as 100% DMSO solutions and brought to 50 times the final assay concentration. The test compound was subjected to 3-fold serial concentration dilution with a final concentration from 10 μM to 0.001 μM of a total of 9 concentrations. The content of DMSO in the detection reaction was 2%. A working stock solution of this compound was added to the assay well as the first component of the reaction, and then the remaining components were added according to the protocol detailed in the following determination.
JAK2(h) was incubated with 8 mM MOPS pH 7.0, 0.2 mM EDTA, 100 μM […] (SEQ ID NO: 2), 10 mM magnesium acetate, and [γ-^33P]-ATP (activity and concentration were determined as required). The reaction was started by adding the Mg/ATP mixture, and after incubation at room temperature for 40 min, the reaction was terminated by adding 0.5% phosphoric acid. Then 10 μL of the reaction product was spotted on a P30 filter pad which was washed three times with 0.425% phosphoric acid and once with methanol within 4 min, dried, and subjected to scintillation counting.
(§3) IC50 results were analyzed by XLFIT5 (205 formula) of IDBS Company.

JAK1(h) = JAK1(h) (Homo sapiens (Human), UniProt P23458); assay: JAK1 kinase activity test in vitro ([γ-33P]-ATP, Eurofins); type: biochemical
Description: as §1, §2
JAK1(h) was incubated with 20 mM Tris/HCl pH 7.5, 0.2 mM EDTA, 500 μM MGEEPLYWSFPAKKK (SEQ ID NO: 1), 10 mM magnesium acetate and [γ-^33P]-ATP (activity and concentration were determined as required). The reaction was started by adding the Mg/ATP mixture, and after incubation at room temperature for 40 min, the reaction was terminated by adding 0.5% phosphoric acid. Then 10 μL of the reaction product was spotted on a P30 filter pad which was washed three times with 0.425% phosphoric acid and once with methanol within 4 min, dried, and subjected to scintillation counting.
as §3

JAK3(h) = JAK3(h) (Homo sapiens (Human), UniProt P52333); assay: JAK3 kinase activity test in vitro ([γ-33P]-ATP, Eurofins); type: biochemical
Description: as §1, §2
JAK3(h) was incubated with 8 mM MOPS pH 7.0, 0.2 mM EDTA, 500 μM GGEEEEYFELVKKKK (SEQ ID NO: 3), 10 mM magnesium acetate, and [γ-^33P]-ATP (activity and concentration were determined as required). The reaction was started by adding the Mg/ATP mixture, and after incubation at room temperature for 40 min, the reaction was terminated by adding 0.5% phosphoric acid. Then 10 μL of the reaction product was spotted on a P30 filter pad which was washed three times with 0.425% phosphoric acid and once with methanol within 4 min, dried, and subjected to scintillation counting.
as §3

TYK2(h) = TYK2(h) (Homo sapiens (Human), UniProt P29597); assay: TYK2 kinase activity test in vitro ([γ-33P]-ATP, Eurofins); type: biochemical
Description: as §1, §2
TYK2(h) was incubated with 8 mM MOPS pH 7.0, 0.2 mM EDTA, 250 μM GGMEDIYFEFMGGKKK (SEQ ID NO: 4), 10 mM magnesium acetate, and [γ-^33P]-ATP (activity and concentration were determined as required). The reaction was started by adding the Mg/ATP mixture, and after incubation at room temperature for 40 min, the reaction was terminated by adding 0.5% phosphoric acid. Then 10 μL of the reaction product was spotted on a P30 filter pad which was washed three times with 0.425% phosphoric acid and once with methanol within 4 min, dried, and subjected to scintillation counting.
as §3

[1] = Pharmacokinetic (PK) test in mice; type: in vivo; settings: mouse, plasma, male balb/c mice, intravenous 1 mg/kg, gavage 3 mg/kg
Description: The clear solution obtained after dissolving the test compound was administered to male mice (balb/c) via tail vein injection and gavage respectively. After administration of the test compound, blood samples were collected from mandibular veins for the intravenous injection group (1 mg/kg) at 0.083, 0.25, 0.5, 1, 2, 4, 8 and 24 h and for the gavage group (3 mg/kg) was at 0.25, 0.5, 1, 2, 4, 6, 8 and 24 h, respectively, and centrifuged to obtain plasma. The LC-MS/MS method was used to determine the blood drug concentration, and the WinNonlin™ Version 6.3 pharmacokinetic software was used to calculate the relevant pharmacokinetic parameters by the non-compartmental model linear logarithmic trapezoidal method.

[2] = tested on: IL-23 induced psoriasis-like skin lesions in mice; assay: In vivo drug efficacy test in mouse psoriasis model (IL-23 induced auricular epidermal dysplasia); set-up: species or system C57BL/6 mice; Ear comprehensive score: scale not given here; settings: for Ear weight: end of experiment (Day 10), 8 mm punch
Source text: Purpose: The purpose of this experiment is to evaluate the preventive and therapeutic effect of the test substance on IL-23 induced psoriasis-like skin lesions in mice through the psoriasis-like skin lesions model induced by intradermal injection of IL-23 into the mouse auricle.
Method: After the adaptation period of experimental animals, 50 mice were divided into 5 groups according to the Excel completely random grouping method, with 10 mice in each group, as follows: vehicle (0.5% MC & 0.5% Tween 80) control group, modeling group, compound 1 (10, 20, 50 mg/kg) group. Except for the vehicle control group, the animals in the other groups were intradermally injected with IL-23 (3 μg/10 μL/mouse/day, QD) in their right ears for 8 consecutive days (D1-D8). The animals in the control group were intradermally injected with an equal volume of physiological saline solution (10 μL/mouse/day, QD) in the right ear for 8 consecutive days (D1-D8). For the modeling group, the vehicle and test drug were administered orally at the same time, twice a day (Bid), with an interval of 6 h, for 8 consecutive days (D1-D8). During the dosing period, the animal body weight was monitored every two days. On D1, D3, D5, D7 (all before IL-23 injection), and D9, the thickness of the mouse right ear was measured and the auricle appearance was observed and scored. At the end of the experiment (Day 10), the ear on the side where the model was created was taken, and the ear was punched along the edge of the auricle with an 8 mm punch to obtain a piece of ear which was weighed. The piece of ear from the right ear was fixed with formalin and then subjected to histopathological examination (H&E) staining.

[3] = 10 mg/kg oral gavage Bid, day 1
[4] = 10 mg/kg oral gavage Bid, day 3
[5] = 10 mg/kg oral gavage Bid, day 5
[6] = 10 mg/kg oral gavage Bid, day 7
[7] = 10 mg/kg oral gavage Bid, day 9
[8] = 20 mg/kg oral gavage Bid, day 1
[9] = 20 mg/kg oral gavage Bid, day 3
[10] = 20 mg/kg oral gavage Bid, day 5
[11] = 20 mg/kg oral gavage Bid, day 7
[12] = 20 mg/kg oral gavage Bid, day 9
[13] = 50 mg/kg oral gavage Bid, day 1
[14] = 50 mg/kg oral gavage Bid, day 3
[15] = 50 mg/kg oral gavage Bid, day 5
[16] = 50 mg/kg oral gavage Bid, day 7
[17] = 50 mg/kg oral gavage Bid, day 9

Sequence of JAK3(h) (P52333 whole entry): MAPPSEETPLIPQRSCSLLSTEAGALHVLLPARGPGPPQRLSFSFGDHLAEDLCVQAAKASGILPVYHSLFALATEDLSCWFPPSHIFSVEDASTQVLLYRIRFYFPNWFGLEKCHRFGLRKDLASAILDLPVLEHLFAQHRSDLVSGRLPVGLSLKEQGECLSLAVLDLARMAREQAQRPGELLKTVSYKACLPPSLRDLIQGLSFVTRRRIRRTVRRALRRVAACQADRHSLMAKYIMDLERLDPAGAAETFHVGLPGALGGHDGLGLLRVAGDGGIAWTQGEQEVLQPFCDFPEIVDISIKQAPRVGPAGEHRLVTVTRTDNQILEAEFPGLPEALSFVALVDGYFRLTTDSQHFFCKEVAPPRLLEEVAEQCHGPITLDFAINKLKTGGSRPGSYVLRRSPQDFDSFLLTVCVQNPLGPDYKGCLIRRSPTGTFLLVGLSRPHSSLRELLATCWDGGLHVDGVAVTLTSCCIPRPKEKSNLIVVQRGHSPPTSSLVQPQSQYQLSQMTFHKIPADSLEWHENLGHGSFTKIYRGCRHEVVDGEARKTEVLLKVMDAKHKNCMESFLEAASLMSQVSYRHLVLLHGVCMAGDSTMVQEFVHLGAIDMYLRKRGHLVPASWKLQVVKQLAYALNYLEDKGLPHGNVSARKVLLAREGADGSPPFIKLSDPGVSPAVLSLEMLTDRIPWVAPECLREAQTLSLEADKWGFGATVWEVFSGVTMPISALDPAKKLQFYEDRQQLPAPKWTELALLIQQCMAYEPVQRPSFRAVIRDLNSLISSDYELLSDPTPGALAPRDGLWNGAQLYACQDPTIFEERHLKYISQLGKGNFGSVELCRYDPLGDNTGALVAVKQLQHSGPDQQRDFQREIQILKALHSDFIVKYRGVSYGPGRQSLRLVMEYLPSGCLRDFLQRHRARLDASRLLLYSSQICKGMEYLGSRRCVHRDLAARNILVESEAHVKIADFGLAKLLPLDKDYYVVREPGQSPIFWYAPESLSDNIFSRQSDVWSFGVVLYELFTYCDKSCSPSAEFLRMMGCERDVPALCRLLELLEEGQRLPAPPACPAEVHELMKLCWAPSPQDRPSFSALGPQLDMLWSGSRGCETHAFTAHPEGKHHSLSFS
Sequence of JAK1(h) (P23458 whole entry): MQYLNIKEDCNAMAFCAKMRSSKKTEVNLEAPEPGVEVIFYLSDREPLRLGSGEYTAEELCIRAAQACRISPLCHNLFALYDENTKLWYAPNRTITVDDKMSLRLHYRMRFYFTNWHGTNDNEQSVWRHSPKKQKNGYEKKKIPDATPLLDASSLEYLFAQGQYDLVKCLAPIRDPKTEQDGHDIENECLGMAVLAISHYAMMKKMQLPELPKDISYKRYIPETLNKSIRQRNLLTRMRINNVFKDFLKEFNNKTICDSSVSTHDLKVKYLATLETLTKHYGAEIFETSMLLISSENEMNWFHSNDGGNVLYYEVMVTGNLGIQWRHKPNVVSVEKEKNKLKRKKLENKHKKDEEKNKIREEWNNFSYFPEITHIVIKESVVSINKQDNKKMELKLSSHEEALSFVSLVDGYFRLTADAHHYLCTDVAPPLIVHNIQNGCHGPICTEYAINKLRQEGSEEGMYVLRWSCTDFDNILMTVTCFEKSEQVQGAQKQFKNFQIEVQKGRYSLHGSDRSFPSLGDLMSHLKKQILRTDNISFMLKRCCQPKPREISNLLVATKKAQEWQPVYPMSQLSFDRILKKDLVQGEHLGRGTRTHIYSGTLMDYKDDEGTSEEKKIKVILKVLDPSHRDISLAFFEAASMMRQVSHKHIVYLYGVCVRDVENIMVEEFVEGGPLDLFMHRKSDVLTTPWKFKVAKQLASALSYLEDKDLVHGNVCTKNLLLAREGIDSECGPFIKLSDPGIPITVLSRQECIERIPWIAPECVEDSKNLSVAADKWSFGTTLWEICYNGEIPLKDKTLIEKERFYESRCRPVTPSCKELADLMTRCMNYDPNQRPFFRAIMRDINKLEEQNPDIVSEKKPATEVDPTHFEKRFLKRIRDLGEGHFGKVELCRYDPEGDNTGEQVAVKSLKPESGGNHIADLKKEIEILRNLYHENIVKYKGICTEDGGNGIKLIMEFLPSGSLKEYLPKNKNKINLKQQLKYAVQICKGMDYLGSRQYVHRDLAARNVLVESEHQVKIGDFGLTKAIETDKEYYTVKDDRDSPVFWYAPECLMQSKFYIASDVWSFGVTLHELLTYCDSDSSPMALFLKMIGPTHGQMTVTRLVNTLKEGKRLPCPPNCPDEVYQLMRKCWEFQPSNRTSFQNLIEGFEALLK
Sequence of JAK2(h) (O60674 whole entry): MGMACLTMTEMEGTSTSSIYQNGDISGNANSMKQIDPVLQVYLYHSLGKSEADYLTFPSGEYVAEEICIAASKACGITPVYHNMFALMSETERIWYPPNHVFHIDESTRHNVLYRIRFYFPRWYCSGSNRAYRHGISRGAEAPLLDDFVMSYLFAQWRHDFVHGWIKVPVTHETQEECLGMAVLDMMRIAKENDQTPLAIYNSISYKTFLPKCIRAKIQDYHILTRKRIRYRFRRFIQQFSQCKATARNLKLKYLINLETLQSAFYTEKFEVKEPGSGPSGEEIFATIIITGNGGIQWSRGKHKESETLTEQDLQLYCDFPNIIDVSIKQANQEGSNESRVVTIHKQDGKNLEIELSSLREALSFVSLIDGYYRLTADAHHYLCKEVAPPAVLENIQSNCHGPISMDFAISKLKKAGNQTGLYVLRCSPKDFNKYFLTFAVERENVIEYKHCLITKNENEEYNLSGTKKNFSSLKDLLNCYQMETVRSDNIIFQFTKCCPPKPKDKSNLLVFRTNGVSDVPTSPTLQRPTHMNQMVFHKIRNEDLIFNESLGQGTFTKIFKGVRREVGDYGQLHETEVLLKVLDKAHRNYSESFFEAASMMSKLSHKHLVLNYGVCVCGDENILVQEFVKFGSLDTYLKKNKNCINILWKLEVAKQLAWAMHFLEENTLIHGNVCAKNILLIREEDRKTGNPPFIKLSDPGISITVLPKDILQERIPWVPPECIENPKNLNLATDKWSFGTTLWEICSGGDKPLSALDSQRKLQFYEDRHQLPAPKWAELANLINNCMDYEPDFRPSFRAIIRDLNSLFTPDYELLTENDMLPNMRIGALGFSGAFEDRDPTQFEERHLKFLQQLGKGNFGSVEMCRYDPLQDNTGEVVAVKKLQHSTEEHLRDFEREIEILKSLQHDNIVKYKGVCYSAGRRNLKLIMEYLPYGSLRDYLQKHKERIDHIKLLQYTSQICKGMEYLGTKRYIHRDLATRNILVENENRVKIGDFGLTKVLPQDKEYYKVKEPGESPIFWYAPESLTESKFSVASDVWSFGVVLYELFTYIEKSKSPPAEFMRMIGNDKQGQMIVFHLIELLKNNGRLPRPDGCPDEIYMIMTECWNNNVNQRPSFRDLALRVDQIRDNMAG
Sequence of TYK2(h) (P29597 whole entry): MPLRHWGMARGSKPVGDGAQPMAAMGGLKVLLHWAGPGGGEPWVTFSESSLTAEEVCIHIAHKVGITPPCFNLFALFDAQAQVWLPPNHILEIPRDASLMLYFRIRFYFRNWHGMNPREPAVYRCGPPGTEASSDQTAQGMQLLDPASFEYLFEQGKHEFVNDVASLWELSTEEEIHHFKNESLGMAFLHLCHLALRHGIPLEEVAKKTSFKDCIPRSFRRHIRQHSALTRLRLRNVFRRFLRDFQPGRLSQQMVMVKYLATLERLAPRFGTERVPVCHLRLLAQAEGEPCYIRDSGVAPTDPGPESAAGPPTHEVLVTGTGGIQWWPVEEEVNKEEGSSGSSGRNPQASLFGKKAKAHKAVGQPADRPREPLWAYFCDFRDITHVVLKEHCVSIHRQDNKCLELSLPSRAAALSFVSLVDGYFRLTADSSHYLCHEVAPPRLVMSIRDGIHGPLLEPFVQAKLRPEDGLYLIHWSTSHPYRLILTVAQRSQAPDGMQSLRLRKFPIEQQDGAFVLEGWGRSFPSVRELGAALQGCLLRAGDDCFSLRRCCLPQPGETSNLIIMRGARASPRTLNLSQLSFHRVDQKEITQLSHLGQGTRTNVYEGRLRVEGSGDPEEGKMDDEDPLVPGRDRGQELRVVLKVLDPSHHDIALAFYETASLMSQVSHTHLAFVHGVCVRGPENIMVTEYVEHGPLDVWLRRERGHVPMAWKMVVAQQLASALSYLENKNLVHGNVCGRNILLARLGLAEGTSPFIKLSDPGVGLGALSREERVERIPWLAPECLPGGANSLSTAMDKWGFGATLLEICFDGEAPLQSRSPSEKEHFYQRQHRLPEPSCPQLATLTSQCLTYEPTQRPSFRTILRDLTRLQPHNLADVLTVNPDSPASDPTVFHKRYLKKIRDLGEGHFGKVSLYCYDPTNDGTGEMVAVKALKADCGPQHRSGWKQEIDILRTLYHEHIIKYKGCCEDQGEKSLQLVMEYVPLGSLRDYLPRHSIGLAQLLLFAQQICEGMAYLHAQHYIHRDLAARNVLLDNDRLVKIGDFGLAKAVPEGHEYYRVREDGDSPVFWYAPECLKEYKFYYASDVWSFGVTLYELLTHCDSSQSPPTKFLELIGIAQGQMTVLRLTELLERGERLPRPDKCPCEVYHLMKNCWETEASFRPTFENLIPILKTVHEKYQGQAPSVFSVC

- IC50 (JAK2(h)): 387 nM
- IC50 (JAK1(h)): 1170 nM
- IC50 (JAK3(h)): 10000 nM
- IC50 (TYK2(h)): 177 nM
Compound: Cn1ccc(-c2cn3nccc3c(-c3cnn(C(CC#N)C45CC(C#N)(C4)C5)c3)n2)n1 (stereo not drawn) [Compound 3]

Compound: Cn1cc(-c2cc(-c3cnn([C@]4(CC#N)CC5(C[C@H](C#N)C5)C4)c3)c3ccnn3c2)cn1 (stereo partly drawn) [Compound 16]
- IC50 (JAK2(h)): 6 nM
- IC50 (JAK1(h)): 42 nM
- IC50 (JAK3(h)): 67 nM
- IC50 (TYK2(h)): 2 nM

Compound: Cn1cc(-c2cn3nccc3c(-c3cnn([C@]4(CC#N)CC5(C[C@H](C#N)C5)C4)c3)n2)cn1 (stereo partly drawn) [Compound 1]
- bioavailability ([1]; oral): 88.7%
- AUC(0-inf) [1]: 7.67 µM·h
- clearance ([1]; read-out: Cl (clearance rate)): 15.6 mL/min/kg
- Cmax ([1]; read-out: Cmax (peak concentration)): 3.04 µM
- half-life ([1]; read-out: T1/2 (half-life) (converted)): 143 min
- Vd ([1]; read-out: Vd (distribution volume)): 1.59 L/kg
- Ear comprehensive score [2, 3]: 0.00 ± 0.00
- Ear thickness (mm) [2, 3]: 0.189 ± 0.006 mm
- Weight [2, 3]: 19.77 ± 0.59 g
- Ear comprehensive score [2, 4]: 0.00 ± 0.00
- Ear thickness (mm) [2, 4]: 0.287 ± 0.018 mm
- Weight [2, 4]: 19.69 ± 0.57 g
- Ear comprehensive score [2, 5]: 0.60 ± 0.52
- Ear thickness (mm) [2, 5]: 0.311 ± 0.013 mm
- Weight [2, 5]: 20.02 ± 0.77 g
- Ear comprehensive score [2, 6]: 1.70 ± 1.06
- Ear thickness (mm) [2, 6]: 0.373 ± 0.030 mm
- Weight [2, 6]: 19.69 ± 0.63 g
- Ear comprehensive score [2, 7]: 2.60 ± 1.43
- Ear thickness (mm) [2, 7]: 0.430 ± 0.048 mm
- Weight [2, 7]: 20.04 ± 0.72 g
- Ear weight ([2]; 10 mg/kg oral gavage Bid): 19.16 ± 1.56 mg
- Ear comprehensive score [2, 8]: 0.00 ± 0.00
- Ear thickness (mm) [2, 8]: 0.190 ± 0.009 mm
- Weight [2, 8]: 19.77 ± 0.54 g
- Ear comprehensive score [2, 9]: 0.00 ± 0.00
- Ear thickness (mm) [2, 9]: 0.289 ± 0.028 mm
- Weight [2, 9]: 19.85 ± 0.78 g
- Ear comprehensive score [2, 10]: 0.60 ± 0.70
- Ear thickness (mm) [2, 10]: 0.306 ± 0.018 mm
- Weight [2, 10]: 20.13 ± 0.78 g
- Ear comprehensive score [2, 11]: 1.40 ± 0.52
- Ear thickness (mm) [2, 11]: 0.350 ± 0.025 mm
- Weight [2, 11]: 19.80 ± 0.92 g
- Ear comprehensive score [2, 12]: 1.50 ± 0.71
- Ear thickness (mm) [2, 12]: 0.381 ± 0.032 mm
- Weight [2, 12]: 20.27 ± 0.90 g
- Ear weight ([2]; 20 mg/kg oral gavage Bid): 18.76 ± 1.62 mg
- Ear comprehensive score [2, 13]: 0.00 ± 0.00
- Ear thickness (mm) [2, 13]: 0.193 ± 0.006 mm
- Weight [2, 13]: 19.78 ± 0.53 g
- Ear comprehensive score [2, 14]: 0.00 ± 0.00
- Ear thickness (mm) [2, 14]: 0.279 ± 0.024 mm
- Weight [2, 14]: 19.85 ± 0.68 g
- Ear comprehensive score [2, 15]: 0.10 ± 0.32
- Ear thickness (mm) [2, 15]: 0.289 ± 0.025 mm
- Weight [2, 15]: 20.41 ± 0.70 g
- Ear comprehensive score [2, 16]: 1.40 ± 0.70
- Ear thickness (mm) [2, 16]: 0.338 ± 0.023 mm
- Weight [2, 16]: 20.15 ± 0.56 g
- Ear comprehensive score [2, 17]: 1.00 ± 0.47
- Ear thickness (mm) [2, 17]: 0.352 ± 0.032 mm
- Weight [2, 17]: 20.28 ± 0.76 g
- Ear weight ([2]; 50 mg/kg oral gavage Bid): 17.63 ± 1.47 mg

- IC50 (JAK1(h)): 3130 nM
- IC50 (TYK2(h)): 177 nM
Compound: Cn1ccc(-c2cn3nccc3c(-c3cnn(C4(CC#N)CC5(CN(CC#N)C5)C4)c3)n2)n1 [Compound 6]

Compound: N#CC[C@]1(n2cc(-c3nc(-c4cc(N)[nH]n4)cn4nccc34)cn2)CC2(C[C@@H](C#N)C2)C1 (stereo partly drawn) [Compound 21]
- IC50 (JAK2(h)): 3 nM
- IC50 (JAK1(h)): 5 nM
- IC50 (JAK3(h)): 99 nM
- IC50 (TYK2(h)): 0.7 nM

- IC50 (JAK2(h)): 5.16 nM
- IC50 (JAK1(h)): 128 nM
- IC50 (JAK3(h)): 209 nM
- IC50 (TYK2(h)): 2.81 nM
Compound: Cn1ccc(-c2cn3nccc3c(-c3cnn(C4(CC#N)CC5(CCN(C#N)CC5)C4)c3)n2)n1 [Compound 9]

- IC50 (JAK1(h)): 2910 nM
- IC50 (TYK2(h)): 228 nM
Compound: Cn1ccc(-c2cn3nccc3c(-c3cnn(C4(CC#N)CC5(CN(C#N)C5)C4)c3)n2)n1 [Compound 7]

- IC50 (JAK2(h)): 1.13 nM
- IC50 (JAK1(h)): 13.7 nM
- IC50 (JAK3(h)): 22.8 nM
- IC50 (TYK2(h)): 6.43 nM
Compound: Cn1ccc(-c2cn3nccc3c(-c3cnn(C4(CC#N)CC5C(C#N)C5C4)c3)n2)n1 (stereo not drawn) [Compound 8]

Compound: Cn1ccc(-c2cn3nccc3c(-c3cnn([C@]4(CC#N)CC5(C[C@H](C#N)C5)C4)c3)n2)n1 (stereo partly drawn) [Compound 4]
- IC50 (JAK2(h)): 82 nM
- IC50 (JAK1(h)): 606 nM
- IC50 (JAK3(h)): ≥ 10000 nM
- IC50 (TYK2(h)): 20 nM

Compound: Cn1nc(-c2cn3nccc3c(-c3cnn([C@]4(CC#N)CC5(C[C@H](C#N)C5)C4)c3)n2)cc1N (stereo partly drawn) [Compound 14]
- IC50 (JAK2(h)): 6 nM
- IC50 (JAK1(h)): 51 nM
- IC50 (JAK3(h)): 296 nM
- IC50 (TYK2(h)): 0.8 nM

Compound: Cn1ccc(-c2cn3nccc3c(-c3cnn([C@]4(CC#N)CC5(C[C@@H](C#N)C5)C4)c3)n2)n1 (stereo partly drawn) [Compound 5]
- IC50 (JAK2(h)): 40 nM
- IC50 (JAK1(h)): 78 nM
- IC50 (JAK3(h)): 2260 nM
- IC50 (TYK2(h)): 9 nM
